Measured values taken from patent publication US20220324835A1 (Nurix Therapeutics, Inc., priority 2018, published 2022).

How the values were obtained:
[1] = system: T-cell; assay: CD25 cell surface staining on T-cells co-stimulated with anti-CD3 and anti-CD28 antibody (Biological Example 2); format: cell-based, human; details: Homo sapiens, T-cell, fold change over baseline, primary human total T-cells, read-out: CD25 staining Anti-CD3/Anti-CD28 stimulation; for fold induction at 0.3 µM: 0.3 μM Cbl-b inhibitor; for fold induction at 1 µM: 1 μM Cbl-b inhibitor; for fold induction at 4 µM: 4 μM Cbl-b inhibitor
Method in brief: (§1)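 T-cells were stimulated with anti-CD3 antibody alone or with anti-CD28 antibody, in the presence or absence of Cbl-b inhibitor. IL-2 secretion or CD25 surface staining was measured, and values expressed as fold over the uninhibited baseline […].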

[2] = target: T1, Cbl-b (Homo sapiens, UniProt Q13191); assay: Cbl-b activity assay (Cbl-b inhibition assay), TR-FRET of Cbl-b interaction with UbcH5B-Ub; format: biochemical; details: assay buffer with 100 mM NaCl, 60 nM Src kinase; read-out: Cbl-b activity IC50
T1 sequence (Q13191 36-427): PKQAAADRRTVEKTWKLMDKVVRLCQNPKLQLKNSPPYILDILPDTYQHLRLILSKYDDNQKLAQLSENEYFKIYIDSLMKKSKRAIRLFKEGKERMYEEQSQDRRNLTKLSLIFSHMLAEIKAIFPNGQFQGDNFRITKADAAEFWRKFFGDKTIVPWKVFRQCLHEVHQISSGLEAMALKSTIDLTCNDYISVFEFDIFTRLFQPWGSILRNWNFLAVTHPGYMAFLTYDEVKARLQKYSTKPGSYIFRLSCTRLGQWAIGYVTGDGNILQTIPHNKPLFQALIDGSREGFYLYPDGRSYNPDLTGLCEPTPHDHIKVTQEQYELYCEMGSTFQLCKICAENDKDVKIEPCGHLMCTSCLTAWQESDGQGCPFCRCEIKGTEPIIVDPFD
Method in brief: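 UbcH5B (C85K) conjugated to N-terminally Bodipy-Fluorescein-labeled ubiquitin served as the fluorescent partner. After compound preincubation, Src kinase (60 nM) with 1 mM ATP and 5 mM MgCl2 (final) was added for 1.5 h, followed by a further 1 h incubation. Some values were obtained with 50 mM NaCl and 30 nM Src.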

[3] = system: T-cell; assay: CD25 cell surface staining on T-cells stimulated with anti-CD3 antibody alone (Biological Example 2); format: cell-based, human; details: T-cell, fold change over baseline, primary human total T-cells, read-out: CD25 staining Anti-CD3 stimulation; for fold induction at 1 µM: 1 μM Cbl-b inhibitor; for fold induction at 8 µM: 8 μM Cbl-b inhibitor
[4] = system: T-cell; assay: IL-2 secretion from T-cells co-stimulated with anti-CD3 and anti-CD28 antibody (Biological Example 2); format: cell-based, human; details: Homo sapiens, T-cell, fold change over baseline, primary human total T-cells, read-out: IL-2 secretion Anti-CD3/Anti-CD28 stimulation; for fold induction at 0.3 µM: 0.3 μM Cbl-b inhibitor; for fold induction at 1 µM: 1 μM Cbl-b inhibitor; for fold induction at 4 µM: 4 μM Cbl-b inhibitor
Method in brief: as §1

[5] = target: T1, Cbl-b; assay: Cbl-b inhibition assay (Cbl-b activity assay, FRET, Biological Example 1; 100 mM NaCl, 60 nM Src kinase); format: biochemical; details: upper bound stated in text lists; read-out: IC50 values in the Cbl-b inhibition assay of Biological Example 1
Method in brief: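 Inhibition is read as loss of FRET signal. The signal arises when Src-phosphorylated, N-terminal biotinylated Avi-Cbl-b (captured by streptavidin-terbium) binds UbcH5B carrying covalently linked Bodipy-Fluorescein-tagged ubiquitin.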

[6] = system: T-cell; assay: IL-2 secretion from T-cells stimulated with anti-CD3 antibody alone (Biological Example 2); format: cell-based, human; details: T-cell, fold change over baseline, primary human total T-cells, read-out: IL-2 secretion Anti-CD3 stimulation; for fold induction at 1 µM: 1 μM Cbl-b inhibitor; for fold induction at 8 µM: 8 μM Cbl-b inhibitor

Row | SMILES | fold induction at 0.3 µM [1] | fold induction at 1 µM [1] | fold induction at 4 µM [1] | IC50 [2] [µM] | fold induction at 1 µM [3] | fold induction at 8 µM [3] | fold induction at 0.3 µM [4] | fold induction at 1 µM [4] | fold induction at 4 µM [4] | IC50 [5] [µM] | fold induction at 1 µM [6] | fold induction at 8 µM [6]
1 | C[C@H](Sc1nncn1C)c1cccc(NC(=O)c2cc(C3(O)COC3)cc(C(F)(F)F)n2)c1 [Compound 84, (S)-4-(3-hydroxyoxetan-3-yl)-N-(3-(1-((4-methyl-4H-1,2,4-triazol-3-yl)thio)ethyl)phenyl)-6-(trifluoromethyl)picolinamide] | < 1 | 1.01 to 1.3 | 1.01 to 1.3 | 0.301 to 1 | < 0.6 | 0.601 to 0.8 | < 1 | < 1 | < 1 | ≤ 1 | < 0.05 | < 0.05
2 | COc1cc(C(=O)Nc2cccc([C@H](C)Cc3nncn3C)c2)nc(C(F)(F)F)c1 [Compound 192, (R)-4-methoxy-N-(3-(1-(4-methyl-4H-1,2,4-triazol-3-yl)propan-2-yl)phenyl)-6-(trifluoromethyl)picolinamide] | 1.01 to 1.3 | 1.01 to 1.3 | 1.01 to 1.3 | 0.301 to 1 | 0.801 to 1 | 0.801 to 1 | 1.01 to 2.5 | 1.01 to 2.5 | 1.01 to 2.5 | ≤ 1 | 0.101 to 0.15 | 0.101 to 0.15
3 | C[C@H](Cc1nncn1C)c1cccc(NC(=O)c2cc3cc(N4CCN(C)C(=O)C4)ccc3cn2)c1 [Compound 209, (R)-6-(4-methyl-3-oxopiperazin-1-yl)-N-(3-(1-(4-methyl-4H-1,2,4-triazol-3-yl)propan-2-yl)phenyl)isoquinoline-3-carboxamide 2,2,2-trifluoroacetate] | 1.31 to 1.5 | 1.31 to 1.5 | 1.51 to 1.75 | < 0.1 | < 0.6 | > 1 | 5 to 7.5 | 5 to 7.5 | > 7.5 | ≤ 0.1 | > 0.201 | > 0.201
4 | Cc1ccc(C(=O)Nc2cccc(C(C)Cc3nccn3C)c2)nc1C1CC1 (stereo not drawn) [Compound 214, 6-Cyclopropyl-5-methyl-N-(3-(1-(1-methyl-1H-imidazol-2-yl)propan-2-yl)phenyl)picolinamide] | < 1 | < 1 | 1.01 to 1.3 | 1 to 3 | < 0.6 | < 0.6 | > 7.5 | > 7.5 | > 7.5 | ≤ 10 | 0.051 to 0.1 | 0.051 to 0.1
5 | Cc1ccnn1CC(C)c1cccc(NC(=O)c2cccc(C(F)(F)F)n2)c1 (stereo not drawn) [Compound 215, N-[3-[1-methyl-2-(5-methylpyrazol-1-yl)ethyl]phenyl]-6-(trifluoromethyl)pyridine-2-carboxamide] | 1.51 to 1.75 | 1.31 to 1.5 | 1.51 to 1.75 | 0.301 to 1 | < 0.6 | < 0.6 | < 1 | < 1 | 1.01 to 2.5 | ≤ 1 | 0.051 to 0.1 | 0.051 to 0.1
6 | C[C@@H](Cc1nncn1C)c1cccc(NC(=O)c2cc(C(=O)N3CC[C@H](O)C3)cc(C3CC3)n2)c1 [Compound 221, 6-Cyclopropyl-4-[(3S)-3-hydroxypyrrolidine-1-carbonyl]-N-[3-[(1S)-1-methyl-2-(4-methyl-1,2,4-triazol-3-yl)ethyl]phenyl]pyridine-2-carboxamide] | 1.01 to 1.3 | 1.31 to 1.5 | 1.31 to 1.5 | 0.301 to 1 | < 0.6 | < 0.6 | < 1 | < 1 | < 1 | ≤ 1 | 0.051 to 0.1 | 0.051 to 0.1
7 | C[C@H](Cc1nncn1C)c1cccc(N2Cc3c(cc(C4CC4)cc3C(F)(F)F)C2=O)c1 [Compound 260, (R)-6-cyclopropyl-2-(3-(1-(4-methyl-4H-1,2,4-triazol-3-yl)propan-2-yl)phenyl)-4-(trifluoromethyl)isoindolin-1-one] | 1.01 to 1.3 | 1.01 to 1.3 | 1.31 to 1.5 | < 0.1 | 0.801 to 1 | > 1 | 1.01 to 2.5 | 1.01 to 2.5 | 2.51 to 5 | ≤ 0.1 | > 0.201 | > 0.201
8 | Cc1conc1CC(C)c1cccc(N2Cc3c(cccc3C(F)(F)F)C2=O)c1 (stereo not drawn) [Compound 268, 2-(3-(1-(4-methylisoxazol-3-yl)propan-2-yl)phenyl)-4-(trifluoromethyl)isoindolin-1-one] | 1.01 to 1.3 | 1.01 to 1.3 | 1.01 to 1.3 | 0.301 to 1 | 0.601 to 0.8 | 0.801 to 1 | 1.01 to 2.5 | 1.01 to 2.5 | 1.01 to 2.5 | ≤ 0.5 | < 0.05 | 0.051 to 0.1
9 | C[C@H](Cc1nncn1C)c1cccc(N2Cc3c(cc(C(=O)N4CC(O)C4)cc3C3CC3)C2=O)c1 [Compound 278, (R)-4-cyclopropyl-6-(3-hydroxyazetidine-1-carbonyl)-2-(3-(1-(4-methyl-4H-1,2,4-triazol-3-yl)propan-2-yl)phenyl)isoindolin-1-one] | 1.01 to 1.3 | 1.01 to 1.3 | 1.01 to 1.3 | < 0.1 | 0.801 to 1 | > 1 | 1.01 to 2.5 | 1.01 to 2.5 | 2.51 to 5 | ≤ 0.1 | 0.151 to 0.2 | > 0.201
10 | C[C@H](Cc1nncn1C)c1cccc(N2Cc3c(cc(-c4ccn[nH]4)cc3C(F)(F)F)C2=O)c1 [Compound 279, (R)-2-(3-(1-(4-methyl-4H-1,2,4-triazol-3-yl)propan-2-yl)phenyl)-6-(1H-pyrazol-5-yl)-4-(trifluoromethyl)isoindolin-1-one] | 1.01 to 1.3 | 1.31 to 1.5 | 1.31 to 1.5 | < 0.1 | > 1 | > 1 | 2.51 to 5 | 5 to 7.5 | > 7.5 | ≤ 0.1 | > 0.201 | > 0.201
11 | Cn1cnnc1CC(C)(C)c1cccc(NC(=O)c2cccc(C(F)(F)F)n2)c1 [Compound 284, N-(3-(2-methyl-1-(4-methyl-4H-1,2,4-triazol-3-yl)propan-2-yl)phenyl)-6-(trifluoromethyl)picolinamide] | 1.01 to 1.3 | 1.01 to 1.3 | 1.31 to 1.5 | < 0.1 | 0.801 to 1 | > 1 | 1.01 to 2.5 | 2.51 to 5 | > 7.5 | ≤ 0.1 | > 0.201 | > 0.201
12 | Cn1cnnc1CC(c1cccc(N2Cc3c(cccc3C(F)(F)F)C2=O)c1)C(F)(F)F (stereo not drawn) [Compound 289, 2-(3-(1,1,1-Trifluoro-3-(4-methyl-4H-1,2,4-triazol-3-yl)propan-2-yl)phenyl)-4-(trifluoromethyl)isoindolin-1-one] | 1.01 to 1.3 | 1.01 to 1.3 | 1.01 to 1.3 | 0.301 to 1 | 0.801 to 1 | 0.801 to 1 | < 1 | < 1 | 1.01 to 2.5 | ≤ 0.5 | 0.101 to 0.15 | 0.151 to 0.2
